Measured values taken from patent US4814332A, “Antimicrobial 1,3-disubstituted/imidazolium salts” (Hoffman-La Roche Inc., priority 1986, dated 1989).

Experiments:
Litomosoides carinii = assay: filaricidal activity on cotton rats infected with Litomosoides carinii; assay type: in vivo, Litomosoides carinii (in cotton rats, Sigmodon hispidus); settings: sc, 1008 h, s.c., L. carinii-infected cotton rats, treated 14 weeks after infection, dissected 42 days after treatment, Probit analysis, read-out: ED90 (dosage at which 90% of the worms removed from the pleural cavity are dead)
Description: (§1) The filaricidal activity of the compounds of formula I can be determined, for example, on cotton rats (Sigmodon hispidus) which have been infected with Litomosoides carinii. The infection with L. carinii is transmitted by the blood-sucking mite Bdellonyssus bacoti in which the development of the microfilaria in infectious larvae takes place. The cotton rats are infected by exposing them to bites of infected mites. After fourteen (14) weeks, the infected groups of 2-4 animals are treated subcutaneously with the compound to be tested. Forty two (42) days after treatment with the compound to be tested, the experimental animals are dissected, and the adult filaria are removed from the pleural cavity. Living and dead or encapsulated worms are separated from one another and weighed. The filaricidal activity is expressed as the percentage proportion of dead macrofilaria per treatment group. The ED90 is then determined by means of Probit analysis using the values from different dosage groups. The ED90 is that dosage at which 90% of the worms removed from the pleural cavity are dead. In the following Table, the results which were obtained in the previously described test with representative members of the class of compound defined by formula I are compiled. Moreover, the Table contains data concerning the acute toxicity of some of the compounds of formula I in mg per kg obtained after single oral administration to mice.

[1] = acute toxicity after single oral administration to mice; settings: mouse, in vivo, p.o.
Description: as §1, with “Moreover, the Table contains data concerning the acute toxicity of some of the compounds of formula I in mg per kg obtained after single oral administration to mice.” left out

Row | SMILES | ED90 (Litomosoides carinii) | LD50 [1]
1 | CN(C)C=Cc1n(N=Cc2ccc(N(C)C)cc2)cc[n+]1N=Cc1ccc(N(C)C)cc1.[Cl-] [Compound A, 1,3-bis[[p-(dimethylamino)benzylidene]amino]-2-[2-(dimethylamino)vinyl]imidazolium chloride] | 1 mg/kg | 312 to 625 mg/kg
2 | CN(C)c1ccc(C=Nn2cc[n+](N=Cc3ccc(N(C)C)cc3)c2C=CN2CCCCC2)cc1.[Cl-] [Compound B, 1,3-bis[[p-(dimethylamino)benzylidene]amino]-2-(2-piperidinovinyl)imidazolium chloride] | 2 mg/kg | 
3 | CN(C)c1ccc(C=Nn2cc[n+](N=Cc3ccc(N(C)C)cc3)c2C=CN2CCOCC2)cc1.[Cl-] [Compound C, 1,3-bis[[p-(dimethylamino)benzylidene]amino]-2-(2-morpholinovinyl)imidazolium chloride] | 0.55 mg/kg | 
4 | CN(C)c1ccc(C=Nn2cc[n+](N=Cc3ccc(N(C)C)cc3)c2-c2ccccc2)cc1.[Cl-] [Compound D, 1,3-bis[[p-(dimethylamino)benzylidene]amino]-2-phenylimidazolium chloride] | < 1 mg/kg | 1250 to 2500 mg/kg
